According to patent US10337071B2, “Oncogene NRF2” (National Cancer Center, priority 2008, dated 2019):

What was measured:
Type in all cases: cell-based
[1] = tested on: KYSE-180 esophageal cancer cell line (NRF2 gene mutation); test: Growth suppression by dsRNA against NRF2, MTS assay; details: KYSE-180, 72 hours, vs control dsRNA
Experimental: (§1) NRF2 gene expression was suppressed by dsRNA for the esophageal cancer cell lines that have NRF2 gene mutation (KYSE-50 and KYSE-180). Esophagus cancer cell lines were seeded into 96 well plates at 5000 cells/well, and control dsRNA (ON-TARGET plus Non-targeting Pool, Dharmacon, D-001810-10) or dsRNA against NRF2 (NRF2 dsRNA) (5′-[…]-3′ (SEQ ID NO 20) and 5′-p[…]-3′ (SEQ ID NO 21)) were introduced using Lipofectamine (Lipofectamine RNAiMax, Invitrogen). Then they were incubated at 37 degrees C. for 72 hours. Then, the number of viable cells was determined by a MTS assay for the NADH activity (CellTiter 96 Aqueous One Solution Cell Proliferation Assay, Promega).

[2] = tested on: KYSE-50 esophageal cancer cell line (NRF2 gene mutation); test: as above; details: KYSE-50, 72 hours, vs control dsRNA
Experimental: as §1

[3] = tested on: esophageal cancer cell lines with NRF2 gene abnormality (KYSE-50, KYSE-70, KYSE-180); test: Suppression of proliferation by rapamycin treatment, MTS assay; details: rapamycin 1, 5, 10 nM, 72 hours
Experimental: (§2) Suppression of proliferation by rapamycin treatment was examined for the esophageal cancer cell lines without NRF2 gene abnormality (KYSE-30, KYSE-140, KYSE-170, KYSE-270) and for the cell lines with NRF2 gene abnormality (KYSE-50, KYSE-70, KYSE-180). The 7 esophageal cancer cell lines were seeded onto 96 well plates at 5000 cells/well, and 0, 1, 5, and 10 nM of rapamycin were added. After incubated at 37 degrees C. for 72 hours, viable cells were counted based on the NADH activity (MTS assay, CellTiter 96 Aqueous One Solution Cell Proliferation Assay, Promega).

[4] = tested on: head and neck cancer cell lines with NRF2 gene abnormality (HO-1-u-1); test: as above
Experimental: as §2
(§3) In addition, growth suppression effect of rapamycin treatment to the lung cancer cell lines without NRF2 gene abnormality (SQ-5, QG-56) or with NRF2 gene abnormality (LK-2, EBC-1) and to the head and neck cancer cell lines without NRF2 gene abnormality (HO-1-N-1, HSC2) or with NRF2 gene abnormality (HO-1-u-1) were also examined by similar method for the above esophageal cancer cell lines.

[5] = tested on: lung cancer cell lines with NRF2 gene abnormality (LK-2, EBC-1); test: as above
Experimental: as §2, §3

Row | Compound | suppressive effect on proliferation compared with the control [1] | suppressive effect on proliferation compared with the control [2] | cell proliferation, ratio of cell counts, % of the control (0 nM = 100%) [3] | cell proliferation, ratio of cell counts, % of the control (0 nM = 100%) [4] | cell proliferation, ratio of cell counts, % of the control (0 nM = 100%) [5]
1 | NRF2 dsRNA: dsRNA against NRF2: 5'-UAAAGUGGCUGCUCAGAAUUU-3' (SEQ ID NO 20) and 5'-pAUUCUGAGCAGCCACUUUAUU-3' (SEQ ID NO 21) (second strand carries 5' phosphate, otherwise chemistry not given here, further chemistry not given here) | 38% | 26% | – | – | –
2 | CO[C@H]1C[C@@H]2CC[C@@H](C)[C@@](O)(O2)C(=O)C(=O)N2CCCC[C@H]2C(=O)O[C@H]([C@H](C)C[C@@H]2CC[C@@H](O)[C@H](OC)C2)CC(=O)[C@H](C)/C=C(\C)[C@@H](O)[C@@H](OC)C(=O)[C@H](C)C[C@H](C)/C=C/C=C/C=C/1C [rapamycin] | – | – | about 70% | about 70% | 62-70%
